Source: patent US20040192554A1, “Technique for effectively treating an agricultural product with a 1-substituted-cyclopropene” (priority 2003, published 2004)

What was measured:
Assay type in all cases: in vivo
[1] = test system: Japanese pear (variety "Shinsei") fruit; assay: Quality deterioration of Japanese pear (Shinsei) fruit after storage, Example 2; details: 1 ppm, after storage 25 degrees C 2 weeks
Procedure: Using a Japanese pear (variety “Shinsei”) fruit (6 fruits were used per group) as an agricultural product, the following experiment was performed.
(§1) 1) A fruit and 1-methylcyclopropene (concentration 1 ppm in a chamber) were placed into a sealed chamber, and contact-treated for 16 hours under a normal pressure.
2) A fruit was placed into a sealed chamber, and a pressure in the chamber was reduced to 12.5 kPa. Subsequently, 1-methylcyclopropene was placed therein to the concentration in the chamber of 1 ppm, and contact-treated for 1 minute or 10 minutes under the reduced pressure (12.5 kPa).
The fruit which had been subjected to treatment of the above-mentioned 1) or 2) was stored at 25 degrees C for 2 weeks, and hardness of flesh and pH of a fruit juice which is an index for the content of an acid were measured. In addition, browning of flesh and fruit core, which is an index for an extent of storage disorder was assessed by naked eyes. Contact treatment of the above-mentioned 1) or 2) was performed on a day of harvesting a fruit. In addition, also regarding a fruit undergoing no treatment of 1) or 2) (non-treatment), similar storage was performed, and the above-mentioned index was measured and assessed. Further, regarding non-treated fruit, the above-mentioned index before storage was also measured and assessed. Different alpha characters in the same column after storage indicate that a significant difference was recognized at a risk rate of 5% (multiple range test of Newman-Keuls).

[2] = test system: apple (variety "Orin") fruit; assay: Quality deterioration of apple (Orin) fruit after storage, Example 6; details: 1 ppm, after storage 25 degrees C 3 weeks
Procedure: Using an apple (variety “Orin”) fruit (6 fruits were used per group) as an agricultural product, the following experiment was performed.
as §1
2) A fruit was placed into a sealed chamber, and a pressure in the chamber was reduced to 25.0 kPa. Subsequently, 1-methylcyclopropene was placed therein to the concentration in the chamber of 1 ppm, and contact-treated for 1 hour under the reduced pressure (25.0 kPa).
3) A fruit was placed into a sealed chamber. Subsequently, a pressure in the chamber was reduced to 25.0 kPa, and the fruit was kept in the chamber for 1 hour under the reduced pressure (25.0 kPa).
The fruit which had been subjected to treatment of the above-mentioned 1), 2) or 3) was stored at 25 degrees C for 3 weeks, and hardness of flesh and mealy of flesh were measured. In addition, treatments of the above-mentioned 1), 2) and 3) were performed regarding fruits which had been stored for about 1 month after harvesting of fruit. In addition, also regarding a fruit undergoing no treatment of 1), 2) or 3) (non-treatment), similar storage was performed, and the above-mentioned index was measured. Further, regarding non-treated fruit, the above-mentioned index before storage was also measured. Different alpha characters in Table 6 indicate that a significant difference was recognized at a risk rate of 5% (multiple range test of Newman-Keuls).

[3] = test system: peach (variety "Yuzora") fruit; assay: Quality deterioration of peach (Yuzora) fruit after storage, Example 7; details: 1 ppm, after storage 25 degrees C 9 days
Procedure: Using a peach (variety “Yuzora”) fruit (6 fruits were used per group) as an agricultural product, the following experiment was performed.
1) A fruit and 1-methylcyclopropene (concentration 1 ppm in a chamber) were placed into a sealed chamber, and contact-treated for 24 hours under a normal pressure.
2) A fruit was placed into a sealed chamber, and a pressure in the chamber was reduced to 25.0 kPa. Subsequently, 1-methylcyclopropene was placed therein to the concentration in the chamber of 1 ppm, and contact-treated for 1 minute under the reduced pressure (25.0 kPa).
The fruit which had been subjected to treatment of the above-mentioned 1) or 2) was stored at 25 degrees C for 9 days, and hardness of flesh and was measured. In addition, contact treatment of the above-mentioned 1) or 2) was performed on the next day from harvesting of fruit. In addition, also regarding a fruit undergoing no treatment of 1) or 2) (non-treatment), similar storage was performed, and the above-mentioned index was measured. Further, regarding non-treated fruit, the above-mentioned index before storage was also measured.

[4] = test system: cut flower of a carnation (variety "Rosybabara"); assay: Withering of carnation cut flower after storage, Example 10; details: 1 ppm, after storage 20 degrees C 14 days, average score of 5 plants (0=healthy)
Procedure: Using a cut flower (5 ornamental plants were used per group) of a carnation (variety “Rosybabara”) as an agricultural product, the following experiment was performed. […]
2) An ornamental plant was placed into a sealed chamber, and a pressure in the chamber was reduced to 12.5 kPa. Subsequently, 1-methylcyclopropene was placed therein to the concentration in the chamber of 1 ppm, and contact-treated for 1 minute under the reduced pressure (12.5 kPa).
3) An ornamental plant was placed in a sealed chamber. Subsequently, a pressure in the chamber was reduced to 12.5 kPa and the ornamental plant was kept in the chamber under the reduced pressure for 1 minute.
An ornamental plant which had been subjected to treatment of the above-mentioned 1), 2) or 3) was stored at 20 degrees C for 14days, and an extent of withering of an ornamental plant was assessed by naked eyes. Assessment criteria were 4 stages; 0=healthy, 1=slight withering, 2=intermediate withering, […], and an average of assessment in 5 ornamental plants was calculated. Note that the treatment above-mentioned 1), 2) or 3) was performed on a day of harvesting an ornamental plant. In addition, also regarding an ornamental plant undergoing no treatment of 1), 2) or 3) (non-treatment), the similar storage was performed, and the above-mentioned index was measured.

[5] = Reduced pressure (12.5 kPa) 1 minute
[6] = Reduced pressure (12.5 kPa) 10 minutes
[7] = Reduced pressure (25.0 kPa) 1 hour

## CC1=CC1 [1-MCP, 1-methylcyclopropene]
[1]; Normal pressure 16 hours
  Hardness of flesh: 22.74c N
  Presence or absence of browning: Absence
  pH of fruit juice: 4.92a
[1]; [5]
  Hardness of flesh: 18.72b N
  Presence or absence of browning: Absence
  pH of fruit juice: 4.90a
[1]; [6]
  Hardness of flesh: 22.25c N
  Presence or absence of browning: Absence
  pH of fruit juice: 5.00ab
[2]; Normal pressure 16 hours
  Hardness of flesh: 42.06ab N
  Mealy of flesh: Slight
[2]; [7]
  Hardness of flesh: 44.02b N
  Mealy of flesh: Slight
[3]; Normal pressure 24 hours
  Hardness of flesh: 4.38 N
[3]; Reduced pressure (25.0 kPa) 1 minute
  Hardness of flesh: 4.24 N
[4]; Normal pressure 1 hour
  Extent of withering: 0.8
[4]; Normal pressure 24 hours
  Extent of withering: 0.4
[4]; [5]
  Extent of withering: 0.4
